The record followed here is ChEMBL document CHEMBL4376895.

Type in all cases: cell-based
Test [1] concerns the target T1, Neuronal acetylcholine receptor; alpha4/beta2 (Rattus norvegicus) (UniProt P09483+P12390). Nature of the test: Antagonist activity at rat alpha4beta2 nAChR expressed in Xenopus laevis oocytes assessed as inhibition of Ach-induced response up to 10 uM at -70 mV holding potential by two electrode voltage-clamp assay. In general terms: In two-electrode clamp one electrode senses voltage and the other passes current.

For test [2], the target named is T2, Neuronal acetylcholine receptor; alpha2/beta4 (Rattus norvegicus) (UniProt P12389+P12392). Nature of the test: Antagonist activity at rat alpha2beta4 nAChR expressed in Xenopus laevis oocytes assessed as inhibition of Ach-induced response up to 10 uM at -70 mV holding potential by two electrode voltage-clamp assay.
Test [3] concerns the target T3, Neuronal acetylcholine receptor; alpha4/beta4 (Rattus norvegicus) (UniProt P09483+P12392). Nature of the test: Antagonist activity at rat alpha4beta4 nAChR expressed in Xenopus laevis oocytes assessed as inhibition of Ach-induced response up to 10 uM at -70 mV holding potential by two electrode voltage-clamp assay.
Test [4] addresses T4, Neuronal acetylcholine receptor; alpha9/alpha10 (Homo sapiens) (UniProt Q9UGM1+Q9GZZ6). Nature of the test: Antagonist activity at human alpha9alpha10 nAChR expressed in Xenopus laevis oocytes assessed as inhibition of Ach-induced response at 50 nM at -70 mV holding potential by two electrode voltage-clamp assay relative to control.
Test [5] has as its target T2, Neuronal acetylcholine receptor; alpha2/beta4 (Rattus norvegicus). Nature of the test: Antagonist activity at rat alpha2beta4 nAChR expressed in Xenopus laevis oocytes assessed as inhibition of Ach-induced response at >10 uM at -70 mV holding potential by two electrode voltage-clamp assay.
The target in test [6] is T1, Neuronal acetylcholine receptor; alpha4/beta2 (Rattus norvegicus). Nature of the test: Antagonist activity at rat alpha4beta2 nAChR expressed in Xenopus laevis oocytes assessed as inhibition of Ach-induced response at >10 uM at -70 mV holding potential by two electrode voltage-clamp assay.
The target of test [7] is Nicotinic acetylcholine receptor alpha9/alpha10 (Rattus norvegicus) (UniProt P43144+Q9JLB5). Nature of the test: Antagonist activity at rat alpha9alpha10 nAChR expressed in Xenopus laevis oocytes assessed as inhibition of Ach-induced response at 10 nM at -70 mV holding potential preincubated for 5 mins followed by compound washout by two electrode voltage-clamp assay.
The target of test [8] is T4, Neuronal acetylcholine receptor; alpha9/alpha10 (Homo sapiens). Nature of the test: Antagonist activity at human alpha9alpha10 nAChR expressed in Xenopus laevis oocytes assessed as inhibition of Ach-induced response at 100 nM at -70 mV holding potential by two electrode voltage-clamp assay relative to control.
Test [9] concerns the target T3, Neuronal acetylcholine receptor; alpha4/beta4 (Rattus norvegicus). Nature of the test: Antagonist activity at rat alpha4beta4 nAChR expressed in Xenopus laevis oocytes assessed as inhibition of Ach-induced response at >10 uM at -70 mV holding potential by two electrode voltage-clamp assay.

The source made the active and inactive calls. The calls are words filed in the database; no cut-off is given here. Positions of bridges follow the written chain, without caps; N, C: chain ends. Residues, ends and D or L forms follow the SMILES beside them.

Take `CC[C@H](C)[C@@H]1NC(=O)[C@H](CCCNC(=N)N)NC(=O)[C@H](CCCNC(=N)N)NC(=O)[C@@H](NC(=O)[C@H](Cc2ccc(O)cc2)NC(=O)[C@H](CCCNC(=N)N)NC(=O)[C@H](CCCNC(=N)N)NC(=O)[C@H](CCCNC(=N)N)NC(=O)[C@H](CCCNC(=N)N)NC(=O)[C@H](CC(=O)O)NC(=O)[C@H](Cc2ccc(O)cc2)NC(=O)[C@@H]2CCCN2C(=O)[C@H](CO)NC(=O)[C@H](CCCNC(=N)N)NC(=O)[C@H](CO)NC(=O)[C@H](Cc2ccc(O)cc2)NC(=O)[C@H](CCCNC(=N)N)NC(=O)CNC(=O)[C@H](CO)NC(=O)[C@H](CO)NC(=O)[C@H](CCCNC(=N)N)NC(=O)[C@H](CO)NC(=O)[C@@H](N)[C@@H](C)O)CSSC[C@@H](C(=O)N[C@H](C(=O)O)C(C)C)NC(=O)[C@H](C)NC(=O)[C@H](CC(=O)O)NC(=O)[C@H]([C@@H](C)O)NC1=O` (H-TSRSSGRYSRSPYDRRRRYCRRITDACV-OH; disulfide 20-27): the inhibition result in [1], in test [2] and in [3] was “inactive” throughout.

For H-TARSSGRYARSPYDRRRRYARRITDAAV-OH, the inhibition result in test [1], in [2] and in [3] was “inactive” throughout.

On to H-TARSSGRYARSPYDRRRRYSRRITDASV-OH, for which the inhibition (usually the relative decrease from the control value, in per cent) in test [4] was determined as 74%; in test [8], 100%. In addition, the inhibition entry in [1], in test [2] and in [3] was “inactive” each time. For the same molecule, the inhibition entry in test [5], in test [6], in test [7] and in test [9] was “Active” throughout.

As to H-TSRSSGRYSRSPYDRRRRYARRITDAAV-OH, the inhibition result in [1], in test [2] and in [3] was “inactive” in each case.

In the case of H-TSRSSGRYSRSPYDRRRRYSRRITDASV-OH, the inhibition result in [1], in [2] and in [3] was “inactive” in each case.
